The record followed here is patent USRE39192E1, “Supplemented and unsupplemented tissue sealants, methods of their production and use” (American National Red Cross, priority 1990, dated 2006).

The test system of the experiment is NIH 3T3 cells. The experiment is described as follows: 3H-thymidine incorporation assay with NIH 3T3 cells. The format is cell-based. The note with it: after incubation with 250 U/ml thrombin and 5 U/ml heparin for 0, 24 or 72 hours. Here is the method:
FIG. 2. Graph ShowingReissue the incorporation of ^3H-thymidine as a function of relative HBGF-1β concentration. Samples of the HBGF-1β were incubated, as described in FIG. 1 and Example 2, in the presence of 250 U/ml thrombin and 5 U/ml heparin for 0, 24 or 72 hours. Dilutions of these samples were then added to NHI 3T3 cells, which were plated as described in Example 3. CPM is plotted v. HBGF-1 concentration.
The biological activity of HBGF-1 in the incubation mixture that contained 5 U/ml of heparin, and was described in Example 2, was measuring using an ^3H-thymidine incorporation assay with NIH 3T3 cells.
NIH 3T3 cells were introduced into 96 well plates and were incubated at 37° C. under starvation conditions in Dulbecco's Modified Medium (DMEM; GIBCO, Grand Island, N.Y.) with 0.5% […] bovine serum (BCS; GIBCO, Grand Island, N.Y.) until the cells reached 30 to 50% confluence. Two days later, varying dilutions of HBGF-1 from the samples prepared in Example 2 were added to each well without changing the medium. Diluent (incubation buffer) was added in place of growth factor for the negative controls and DMEM with 10% BCS, which contains growth factors needed for growth, was added in place of the HBGF-1 sample for the positive controls. […]
For orientation: Incorporation of labelled thymidine or its analogues reports DNA synthesis.

“HBGF-1: heparin binding growth factor-1, also known as ECGF and FGF-1; recombinant HBGF-1β expressed in E. coli”: the “biological activity (3H-thymidine incorporation)” value is recorded as “retained its biological activity”.
